We go through six molecules from patent publication US10081648B2, “Lipid-based platinum compounds and nanoparticles” (AKAMARA THERAPEUTICS, INC., priority 2013, dated 2018).

Data set [1] relates to MDA-MB-231, SKOV-3, HeLa, SW-620 and HCT-116 cell lines. The experiment in a line: MTT cell viability assay, 72 h. It counts as cell-based, human. The note with it: for inhibition of cell viability: 0-25 μM concentration range, dose-response relationship; for IC50 compared with oxaliplatin: human cancer cell lines. How it is done: FIGS. 7A-7F show MTT assay results for some exemplary compounds disclosed herein. Graphical representation of MTT assay for the activity of exemplary compounds examined on various human cancer cell lines. […] The IC50 values of compound/oxaliplatin tested in cell-lines are mentioned alongside, in corresponding colors as the cell viability curve.
Cell culture: Mammalian cells were grown in specific culture media, supplemented with 10% fetal bovine serum (FBS) and antibiotics in a humidified environment containing 5% CO2 at 37° C.
Cell viability assay: The effects of supramolecular platinum conjugates on the viability of cancer cells were measured using MTT assay. Cells in 100 μl culture-media were plated in 96-well plates (3000-5000 cells/well) and allowed to adhere overnight in a humidified environment containing 5% CO2 at 37° C. Fresh media (100 μL) containing different concentrations of compounds were added to cells and incubated for 72 hours. Following incubation, cell viability was determined using the MTT assay. The MTT assay measures cell viability through assessment of active mitochondrial dehydrogenase, which converts MTT into water-insoluble purple formazan crystals. Cell viability was plotted as dose-response curves using curve fitting.
The effects of exemplary compounds (compound 25, 26, 27, 28, 31, 48) were evaluated in vitro in comparison with oxaliplatin in breast cancer (MDA-MB-231), ovarian cancer (SKOV-3), cervical cancer (HeLa) and colorectal cancer (SW-620 and HCT-116) cell lines.

The test system of a further data set is MDA-MB-231 cells. The experiment in a line: Cellular uptake of platinum compounds (AAS). It counts as cell-based. To be noted: 50 μM platinum equivalent, 5 hrs. How it is done:
Cells were incubated with 50 μM concentration of platinum compounds for 5 hours. The amount of platinum accumulated in cells was measured by AAS and expressed as ng of platinum accumulated per 10^5 cells.
Cellular uptake of platinum compounds: MDA-MB-231 cells (1×10^6) were seeded in 2 ml media per well of a 6-well plate and grown for 24 hrs. Required volume of compounds was added to achieve a final concentration of 50 μM platinum equivalent per well. Cells were incubated for 5 hrs after adding the compounds, then washed twice with PBS, harvested by trypsinization, resuspended in PBS and counted. Cells were centrifuged and pellets stored at −80° C. until further processing. The cell pellets were digested with 100 μl nitric acid at 70° C. for 4 hours. Following digestion, the samples were diluted in 2% HCl and the quantity of accumulated platinum was determined using Atomic absorption spectroscopy (AAS). The assay was validated using a linear standard curve, generated from serial dilutions of certified stock platinum standard and cellular uptake of platinum was expressed as ng of platinum per 1×10^5 cells.

With `CC(C)CCC[C@@H](C)[C@H]1CC[C@H]2[C@@H]3CC=C4C[C@@H](OCCOCC[N+]5(CC(=O)[O-])CC(=O)[O][Pt]56[NH][C@@H]5CCCC[C@H]5[NH]6)CC[C@]4(C)[C@H]3CC[C@]12C` (some centres unmarked) [Compound 28], in data set [1], the “inhibition of cell viability” value is reported as “significant inhibition of cell viability” and the “IC50 compared with oxaliplatin” value is listed as “lower than oxaliplatin”.
On to `CC(C)CCC[C@@H](C)[C@H]1CC[C@H]2[C@@H]3CC=C4C[C@@H](OCCCC5=CC(=O)[O][Pt]6([NH][C@@H]7CCCC[C@H]7[NH]6)[O]5)CC[C@]4(C)[C@H]3CC[C@]12C` [Compound 31], for which, in data set [1], the “inhibition of cell viability” value was “significant inhibition of cell viability” and the “IC50 compared with oxaliplatin” value is recorded as “lower than oxaliplatin”.
Take `O=C1[O][Pt]2([NH][C@@H]3CCCC[C@H]3[NH]2)[O]C1=O` [oxaliplatin]: the “cellular uptake of platinum” value in the data set with MDA-MB-231 cells is “similar”.
Consider `CC(C)CCC[C@@H](C)[C@H]1CC[C@H]2[C@@H]3CC=C4C[C@@H](OC(=O)NCC[N+]5(CC(=O)[O-])CC(=O)[O][Pt]56[NH][C@@H]5CCCC[C@H]5[NH]6)CC[C@]4(C)[C@H]3CC[C@]12C` (some centres unmarked) [Compound 26], for which, in data set [1], the “inhibition of cell viability” value was “significant inhibition of cell viability” and the “IC50 compared with oxaliplatin” value is reported as “lower than oxaliplatin”.
Regarding `CC(C)CCC[C@@H](C)[C@H]1CCC2C3CC=C4C[C@@H](OCC[N+]5(CC(=O)[O-])CC(=O)[O][Pt]56[NH][C@@H]5CCCC[C@H]5[NH]6)CC[C@]4(C)C3CC[C@@]21C` (some centres unmarked) [Compound 25], in data set [1], the “inhibition of cell viability” value is “significant inhibition of cell viability” and the “IC50 compared with oxaliplatin” value is reported as “lower than oxaliplatin”.
`CC(C)CCC[C@@H](C)[C@H]1CC[C@H]2[C@@H]3CC=C4C[C@@H](OCCNC(=O)C[N+]5(CC(=O)[O-])CC(=O)[O][Pt]56[NH][C@@H]5CCCC[C@H]5[NH]6)CC[C@]4(C)[C@H]3CC[C@]12C` (some centres unmarked) [Compound 27]: in data set [1], the “inhibition of cell viability” value is “significant inhibition of cell viability” and the “IC50 compared with oxaliplatin” value was “lower than oxaliplatin”.
